From US6355655B1, “Heterocyclic sulphonamide derivatives” (Eli Lilly and Company, priority 1998, dated 2002)

Molecular target: T1, human GluR4B receptor (Homo sapiens, UniProt P48058)
T1 construct: expressed in transfected cells
Assay: Potentiation of agonist-induced excitability of human GluR4B receptor expressed in HEK 293 cells
Format: cell-based
Text: The ability of compounds of formula I to potentiate glutamate receptor-mediated response may be determined using fluorescent calcium indicator dyes (Molecular Probes, Eugene, Oreg., Fluo-3) and by measuring glutamate-evoked efflux of calcium into GluR4 transfected HEK293 cells, as described in more detail below.
In one test, 96 well plates containing confluent monolayers of HEK cells stably expressing human GluR4B (obtained as described in European Patent Application Publication Number EP-A1-583917) are prepared. The tissue culture medium in the wells is then discarded, and the wells are each washed once with 200 μl of buffer (glucose, 10 mM, sodium chloride, 138 mM, magnesium chloride, 1 mM, potassium chloride, 5 mM, calcium chloride, 5 mM, N-[2-hydroxyethyl]-piperazine-N-[2-ethanesulfonic acid], 10 mM, to pH 7.1 to 7.3). […]
Each test is then performed as follows. […] A second fluorescent reading is taken after 5 minutes incubation. 15 μl of 400 μM glutamate solution is then added to each well (final glutamate concentration 100 μM), and a third reading is taken. The activities of test compounds and cyclothiazide solutions are determined by subtracting the second from the third reading (fluorescence due to addition of glutamate in the presence or absence of test compound or cyclothiazide) and are expressed relative to enhance fluorescence produced by 100 μM cyclothiazide.

T1 sequence (P48058 21-902): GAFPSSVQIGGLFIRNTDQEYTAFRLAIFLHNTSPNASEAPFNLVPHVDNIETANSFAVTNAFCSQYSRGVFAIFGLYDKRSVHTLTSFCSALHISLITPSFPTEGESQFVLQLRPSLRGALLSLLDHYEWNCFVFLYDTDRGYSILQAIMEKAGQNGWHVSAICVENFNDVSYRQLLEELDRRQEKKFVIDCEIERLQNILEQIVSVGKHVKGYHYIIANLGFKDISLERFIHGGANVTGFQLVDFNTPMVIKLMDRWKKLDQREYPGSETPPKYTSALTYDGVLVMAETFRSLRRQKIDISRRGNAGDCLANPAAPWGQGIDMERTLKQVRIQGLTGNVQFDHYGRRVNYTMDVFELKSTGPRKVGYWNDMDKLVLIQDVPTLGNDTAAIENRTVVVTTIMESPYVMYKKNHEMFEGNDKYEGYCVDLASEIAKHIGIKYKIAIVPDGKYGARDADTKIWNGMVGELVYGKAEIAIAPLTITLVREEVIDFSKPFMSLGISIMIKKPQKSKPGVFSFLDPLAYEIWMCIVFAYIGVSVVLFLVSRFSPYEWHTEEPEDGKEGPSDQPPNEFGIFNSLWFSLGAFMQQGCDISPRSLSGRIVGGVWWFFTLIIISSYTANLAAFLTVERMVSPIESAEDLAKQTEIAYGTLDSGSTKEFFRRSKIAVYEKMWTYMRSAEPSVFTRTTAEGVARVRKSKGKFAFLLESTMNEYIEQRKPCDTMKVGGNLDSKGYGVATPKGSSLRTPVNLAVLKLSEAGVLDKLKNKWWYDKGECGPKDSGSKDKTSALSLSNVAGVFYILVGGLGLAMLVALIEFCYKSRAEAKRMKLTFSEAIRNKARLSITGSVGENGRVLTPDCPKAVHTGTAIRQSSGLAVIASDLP

NS(=O)(=O)c1cc2c(cc1Cl)NC(C1CC3C=CC1C3)NS2(=O)=O (stereo not shown) [cyclothiazide]
potentiation of agonist-induced excitability: potentiate agonist-induced excitability
